{
  "source": "patent US10393744B2",
  "about": "“Peptides for targeting colorectal cancer, and medical use thereof” (UNIVERSITY OF ULSAN FOUNDATION FOR INDUSTRY COOPERATION, priority 2014, dated 2019)",
  "key": {"[1]": {"tested_on": "Radio-resistant colorectal cancer tissue of patient (case C65)", "assay": "In vivo/ex vivo imaging and phage elution of Cy5.5-labeled peptide-expressing phages in mouse model transplanted with patient's colorectal cancer tissue (Example 4)", "design": "species or system nude mouse", "conditions": "case C65, irradiated population (2 Gy)", "excerpt": "Then, the distributed cancer tissue was kept in a specific preservative solution and transferred directly to an animal chamber, so as to maintain a state in which the cancer tissue was not separated from a patient yet. After an NOD/SCID mouse was anesthetized via intraperitoneal injection of anesthetics, the cancer tissue was cut into pieces each having a size of 3×3 mm. Next, each of both flanks of the NOD/SCID mouse was transplanted with a piece of the cut cancer tissues, and sutured. The NOD/SCID mouse was then recovered on a heating pad for about 2 hours (conditions of the preservative solution: HBSS containing 100 IU/ml penicillin, 100 μg/ml streptomycin, 100 μg/ml gentamicin, 2.5 μg/ml amphotericin B, and 5% fetal bovine serum). After completion of the transplantation, the NOD/SCID mouse was raised until tumors were formed. Meanwhile, the formation and growth of tumors were checked at least once a week. When the transplanted cancer tissues grew to a size of at least 500 mm^3, an extraction process was performed thereon. Then, the extracted cancer tissues were each cut into pieces each having a size of 3×3 mm for subculturing. A nude mouse was anesthetized via intraperitoneal injection of anesthetics, and a piece of the cut cancer tissues was transplanted subcutaneously on the right thigh of the nude mouse. A transplantation site was changed from the flank to the thigh so that irradiation can be locally done without affecting other organs during irradiation. That is, a finally used mouse model transplanted with a patient's colorectal cancer tissue in the present invention was a mouse model established in a way that a cancer tissue that underwent subculturing four times was re-transplanted to form a cancer tissue. When the size of the cancer tissue was increased to about 250 mm^3, only the cancer tissue was irradiated with 2 grays (Gy) of radiation. After having recovery time for no longer than 24 hours, in vivo peptide screening was performed. Here, a non-irradiated population, which is a control group, was also subjected to screening in a separate manner.\nIn detail, regarding in vivo imaging verification, the peptide-expressing phage was amplified, and a process of linking a fluorescent probe (Cy5.5) was performed. In particular, 1 μg/μl of N-hydroxysuccinimide esters of Cy5.5 (Amersham) was added to 1 mL of bicarbonate buffer (pH 8.3) having the phage concentration of 10^12 plaque forming units (pfu), and then, in a condition where a dark environment was maintained, a phage-surface protein was linked to the Cy5.5 fluorescent probe at room temperature for 3 hours. That is, amine groups of the phage-surface protein were chemically linked to N-hydroxysuccinimide esters of the Cy5.5 fluorescent probe via a covalent bond. The peptide-expressing phages to which the Cy5.5 fluorescent probe was linked were each obtained by precipitation with 170 μl of 20% (w/v) PEG 8000/2.5 M NaCl solution and purification. To determine a proportion of the Cy5.5 fluorescent probe linked to each of the finally obtained phage samples, an IVIS spectrum imaging system (Xenogen) was used for measurement, and region of interest (ROI) values were determined using the software program of a corresponding device.\nIn addition, on the last day of the in vivo imaging, the cancer tissues were each extracted, to thereby obtain ex vivo images thereof."}, "[2]": {"tested_on": "colorectal cancer tissue of radio-resistant case (case C65) and radio-sensitive case (case C87)", "assay": "Crossover in vivo imaging of B5 peptide-expressing phage in 4 populations (Example 5)", "design": "species or system mouse", "conditions": "4 populations (C65 and C87, irradiated and non-irradiated); tail vein injection, images until 7th day; compared with Cy5.5 dye and empty phage", "method": "Among the various peptide-expressing phages selected from the above, the in vivo imaging was attempted again for a B5 peptide, which is a peptide sequence screened only from the irradiated population in the radio-resistant case (case C65). At the same time, to confirm the responsiveness in control groups other than the population of interest, a crossover experiment was carried out. In detail, in the presence of differences in irradiation between the radio-sensitive case and the radio-resistant case of Example 1, the in vivo imaging was carried out to determine the targeting of the B5 peptide sequence in 4 populations in total. Here, the irradiated population of case C65 was set as an experimental group while the non-irradiated population of case C65 and all the populations of case C87 were set as control groups. In the same manner as in Example 4, peptide-expressing phages were amplified and a process of linking a Cy5.5 fluorescent probe was carried out. Then, through the tail vein injection in each population, images thereof were observed until the end of the last 7th day. […]"}, "[3]": {"tested_on": "radio-resistant colorectal cancer patient case (C65) cancer tissue", "assay": "Immunohistochemical staining of extracted cancer tissues with anti-M13 antibody (Example 6)", "assay_type": "in vivo, mouse", "conditions": "cancer tissues of each population extracted after imaging", "method": "To verify histological targeting ability of the B5 peptide sequence verified in Example 5, the imaging of the B5 peptide sequence was obtained. Then, cancer tissues of each population were extracted to prepare paraffin blocks and slices. In detail, (1) the extracted cancer tissues were immersed in a formaldehyde solution at room temperature for 24 hours in terms of for immobilization. Then, following a dehydration process, paraffin was added to the solution through penetration to form paraffin blocks. Afterwards, a microtome was used to manufacture slices having a thickness of 3 μm. To perform real immunohistological staining, (2) following a deparaffinization process performed on the slices, (3) an unmasking process was performed so that structures of various proteins immobilized to the tissue slices were recovered to restore sites where antibodies normally bind. Sequentially, (4) a blocking process was performed using a 5% BSA solution, (5) primary antibodies were bound (wherein the antibodies used herein were anti-mouse M13 IgG recognizing M13 phage capsid proteins), (6) and secondary antibodies were bound while HRP was bound. Afterwards, (7) sites where phages were present were stained using DAB development, (7) the nuclei […] were stained with hematoxylin, and (8) a dehydration process was performed thereon. […]"}, "[4]": {"tested_on": "radio-resistant colorectal cancer tissue (radio-resistant case 1, other patient)", "assay": "In vivo imaging of B5 peptide-expressing phage in other patients' colorectal cancer tissue (Example 7)", "design": "species or system mouse", "conditions": "other patient's radio-resistant tissue, with and without irradiation", "method": "(§1) In detail, by extending the crossover experiment verified in Example 4, radio-sensitive case 1 and radio-resistant case 1 regarding other colorectal cancer tissues of a patient characterized as adenocarcinoma were introduced in addition to the radio-sensitive case and the radio-resistant case of Example 1. In the same manner as in Example 4, the B5 peptide-expressing phages were amplified and a process of linking a Cy5.5 fluorescent probe was carried out. Regarding the confirmation of the targeting ability of the B5 peptide, the in vivo imaging was used for observation in the same manner as in Example 5. […] In detail, the targeting ability of the B5 peptide sequence targeting a factor inducing resistance against radiation during radiation therapy in Example 6 was also verified in other colorectal cancer tissues of a radio-resistant patient, thereby confirming the possibility of the B5 peptide sequence as a sequence that is responsive to cancer microenvironments causing induction of resistivity during radiotherapy on colorectal cancer. However, in the patients having radio-sensitive colorectal cancer, it was clearly confirmed that the B5 peptide sequence, as a peptide sequence showing no targeting ability regardless of irradiation, was a sequence selectively tracing a radio-resistant factor. […]"}, "[5]": {"tested_on": "radio-sensitive colorectal cancer tissue (radio-sensitive case 1, other patient)", "assay": "In vivo imaging of B5 peptide-expressing phage in other patients' colorectal cancer tissue (Example 7)", "design": "species or system mouse", "conditions": "other patient's radio-sensitive tissue, with and without irradiation", "method": "as §1"}},
  "note": "Entries after “also recorded” stand apart in the source; their conditions may differ.",
  "data": [
    {"substance": "TPSFSKI [B5]", "values": [
      {"measurement": "in vivo ROI", "setting": "[1]; Cy5.5 fluorescence total flux standardized to Cy5.5 dye control", "value": 4.07},
      {"measurement": "pfu/mg (concentration of eluted phages relative to weight of cancer tissue)", "setting": "[1]; extracted cancer tissue", "value": 209.47, "unit": "pfu/mg"},
      {"measurement": "ex vivo ROI", "setting": "[1]; extracted cancer tissue, standardized to Cy5.5 dye control", "value": 2.43},
      {"measurement": "targeting ability by in vivo imaging (crossover experiment)", "setting": "[2]", "value": "specific binding of a B5 peptide sequence only to an irradiated population in radio-resistant case; also recorded: only the irradiated population of the radio-resistant case (case C65) has exhibited excellent targeting ability"},
      {"measurement": "histological targeting ability (immunohistochemical staining of phage)", "setting": "[3]", "value": "excellent targeting ability; also recorded: specifically bound only to the irradiated population in the radio-resistant colorectal cancer patient case (C65)"},
      {"measurement": "targeting ability by in vivo imaging", "setting": "[4]", "value": "exhibited targeting ability only in the case of irradiation"},
      {"measurement": "targeting ability by in vivo imaging", "setting": "[5]", "value": "did not show any targeting ability regardless of irradiation"}
    ]}
  ]
}
